Data reported in patent publication US7714105B2, “Use of fragments of oxytocin for the preparation of a pharmaceutical composition in order to create eustasis” (priority 2001, dated 2010).
Ends that are not written are not given here.

How the values were obtained:
Format in all cases: in vivo, rat
Oxytocin = test: Plasma oxytocin determination by radioimmunoassay; details: 1 mg/kg s.c. for five consecutive days, trunk blood four days after end of treatment, mean ± SD, in pmol/L
Experimental: (§1) Animals. Eight week-old male Sprague-Dawley rats (280-300 g) were obtained from B&K Universal AB, Sollentuna, Sweden.
(§2) Experimental procedure. SEQ ID NO: 5 was dissolved in physiological saline (1 mg/ml) and administered subcutaneously to six rats at a dose of 1 mg/kg for five consecutive days. Six rats received physiological saline only as a control. Two days after the last treatment, the rats were exposed to blood pressure determination with the cuff technique. The locomotor behaviour was studied three days after the end of the treatment. The next day the animals were decapitated and blood was collected.
(§3) Statistics. The results are presented as means ±SD. Statistical analysis was performed by means of 2-way ANOVA followed by Bonferroni's test for post hoc comparison. A Students t-test was performed. p-values of 0.05 or less were regarded as statistically significant.
Trunk blood was collected in ice-chilled tubes, containing heparin (10 IU/ml) (Pharmacia-Upjohn, Stockholm, Sweden) and aprotinin (500 IU/ml) (Trasylol, Bayer, Germany). […]
Oxytocin was measured with a specific radioimmunoassay developed in this laboratory (Stock, S., and Uvnäs-Moberg, K. (1988). Increased plasma levels of oxytocin in response to stimulation of the sciatic and vagal nerves and in response to touch and pinch in anaesthetized rats. Acta Physiol Scand 132, 29-34.). […]

male Sprague-Dawley rats [1] = test: Locomotor activity observations in open-field arena; details: 1 mg/kg subcutaneously for five consecutive days, studied three days after end of treatment, vs saline control
Experimental: as §1, §2, §3
Two identical frames of photocells were placed at two levels, 40 and 125 mm above the floor, respectively. The open-field was enclosed in a ventilated, sound-attenuating box with a Perspex top. Measurements were made in the dark and performed between 0.900-16.00 h.
The number of photocell beam interruptions were collected on an IBM-compatible PC computer allowing the registration of locomotor activity (all interruptions of photobeams at the lower level) and rearing (all interruptions of photobeams at the upper level). The data were subject to a square root transformation. For further details on the apparatus and the computer software used, including a schematic drawing of the equipment, see Ericson, E., Samuelsson, J., and Ahlenius, S. (1991). Photocell measurements of rat motor activity: A contribution to sensitivity and variation in behavioral observations. J Pharmacol Meth 25, 111-122. Furthermore, the peripheral activity was measured. By peripheral activity is meant that the animals are located in the corners of the arena. When the animals are frightened, they have a higher tendency to be located in the corners ie have a high peripheral activity. […]

male Sprague-Dawley rats [2] = test: Measurement of blood pressure with tail cuff on conscious animals; details: 1 mg/kg s.c. for five consecutive days, two days after last treatment
Experimental: as §1, §2, §3
Blood pressure and heart rate were measured on conscious animals by placing a cuff (Kent RTBP-002, Somedic Sales, Farsta, Sweden) on the base of the tail. The cuff was connected to a Grass 7P8 sphygmanometer and a Grass 7P8DC amplifier with a printer. The rats were habituated to the entire test procedure for 2-3 weeks before the procedure started.

CCK = test: Plasma cholecystokinin (CCK) determination by immunoassay; details: 1 mg/kg s.c. for five consecutive days, trunk blood four days after end of treatment, mean ± SD, in pmol/L
Experimental: as §1, §2, §3
(§4) Trunk blood was collected in ice-chilled tubes, containing heparin (10 IU/ml) (Pharmacia-Upjohn, Stockholm, Sweden) and aprotinin (500 IU/ml) (Trasylol, Bayer, Germany). The blood samples were centrifuged and plasma was removed and frozen (−20° C.).
CCK was immunoassayed as described by Smedh and Uvnäs Moberg, supra. Plasma samples were purified with reversed-phase chromatography using C18 Waters SEP PAK cartridges. […]

Gastrin = test: Plasma gastrin determination by immunoassay; details: 1 mg/kg s.c. for five consecutive days, trunk blood four days after end of treatment, mean ± SD, in pmol/L
Experimental: as §1, §2, §3, §4
Gastrin was immunoassayed as described by Smedh, U., and Uvnäs-Moberg, K. (1994) Intracerebroventricularly administered corticotropin-releasing factor releases somatostatin through a colinergic, vagal pathway in freely fed rats. Acta Physiol Scand 151, 241-247. […]

Cys-Pro-Leu-Gly-NH2 (CPLG-NH2) [SEQ ID NO: 5]
Hormone levels in hormone treated rats (N = 6): Oxytocin (Oxytocin): 29.7 ± 7.2
amount of peripheral activity (male Sprague-Dawley rats [1]): decreased
amount of rearing (male Sprague-Dawley rats [1]): significantly decreased
locomotor activity (male Sprague-Dawley rats [1]): significantly decreased
Diastolic blood pressure, value in hormone treated rats (N = 6) (male Sprague-Dawley rats [2]; mean ± SD): 87.3 ± 18.9
Systolic blood pressure, value in hormone treated rats (N = 6) (male Sprague-Dawley rats [2]; mean ± SD): 116 ± 9.1
blood pressure (male Sprague-Dawley rats [2]; vs saline control): significantly decreased
Hormone levels in hormone treated rats (N = 6): CCK (CCK): 8.4 ± 3.5
Hormone levels in hormone treated rats (N = 6): Gastrin (Gastrin): 85 ± 19.3
